Laboratory results published in patent publication US20190239509A1, “METHOD OF CONTROLLING PLANTS” (SYNGENTA PARTICIPATIONS AG, priority 2016, published 2019).

What was measured:
Assay type in all cases: in vivo
[1] = tested on: Digitaria horizontalis (DIGHO); assay: B3 drilled field trial Brazil, post-emergence, DIGHO; details: Summer season, 28 days after application
Procedure: (§1) Seeds of a variety of test species were used in drilled field trials to look at the control of important weed species present in corn crops as well as the effect on soybean (a volunteer crop in corn). Trials were carried out in Brazil in the summer season and the second season.
(§2) Plot size was 10-15 m^2, and two replicates were carried out per treatment. Plants were treated post-emergence between the 2 and 4 leaf stage. Species tested were Amaranthus retroflexus (AMARE), Ipomoea grandifolia (IAQGR), Digitaria horizontalis (DIGHO), Bidens pilosa (BIDPI), Eleusine indica (ELEIN), Brachiaria decumbens (BRADC), Centrus echinatus (CCHEC), Euphorbia heterophylla (EPPHL), Brachiaria plantaginea (BRAPL) and Glycine max (GLXMA; soybean). Fungicides and insecticides were used as necessary for plant health. The test was evaluated at 28 days after application with 100=total damage to plant and 0=no damage to plant.
(§3) Expected results were calculated using the Colby Formula.

Bidens pilosa (BIDPI) = assay: B3 drilled field trial Brazil, post-emergence, BIDPI; details: 28 days after application
Procedure: as §1, §2, §3

Eleusine indica (ELEIN) = assay: B3 drilled field trial Brazil, post-emergence, ELEIN; details: 28 days after application
Procedure: as §1, §2, §3

[2] = tested on: Brachiaria decumbens (BRADC); assay: B3 drilled field trial Brazil, post-emergence, BRADC; details: 28 days after application
Procedure: as §1, §2, §3

[3] = tested on: Centrus echinatus (CCHEC); assay: B3 drilled field trial Brazil, post-emergence, CCHEC; details: 28 days after application
Procedure: as §1, §2, §3

[4] = tested on: Euphorbia heterophylla (EPPHL); assay: B3 drilled field trial Brazil, post-emergence, EPPHL; details: Summer season, 28 days after application
Procedure: as §1, §2, §3

[5] = tested on: Brachiaria plantaginea (BRAPL); assay: B3 drilled field trial Brazil, post-emergence, BRAPL; details: Summer season, 28 days after application
Procedure: as §1, §2, §3

[6] = tested on: Glycine max (GLXMA; soybean); assay: B3 drilled field trial Brazil, post-emergence, soybean; details: 28 days after application
Procedure: as §1, §2, §3

Question: CCOC1C(O)N(c2cc(C(C)(C)C)on2)C(=O)N1C (stereo not drawn) [Compound 1.4] was tested. Which “Observed damage (100=total damage to plant, 0=no damage)” value ([1]; 75 g ai/ha) did it give?
Answer: 45

Question: What about the “Observed damage (100=total damage to plant, 0=no damage)” value ([1]; 100 g ai/ha) of the same compound?
Answer: 45

Question: And the “Observed damage (100=total damage to plant, 0=no damage)” value ([1]; 150 g ai/ha)?
Answer: 69

Question: And the “Observed damage (100=total damage to plant, 0=no damage)” value (Bidens pilosa (BIDPI); Second season, 50 g ai/ha)?
Answer: 46

Question: And the “Observed damage (100=total damage to plant, 0=no damage)” value (Bidens pilosa (BIDPI); Second season, 75 g ai/ha)?
Answer: 46

Question: What about the “Observed damage (100=total damage to plant, 0=no damage)” value (Bidens pilosa (BIDPI); Second season, 100 g ai/ha) of the same compound?
Answer: 48

Question: What about the “Observed damage (100=total damage to plant, 0=no damage)” value (Bidens pilosa (BIDPI); Second season, 150 g ai/ha) of the same compound?
Answer: 60

Question: And the “Observed damage (100=total damage to plant, 0=no damage)” value (Bidens pilosa (BIDPI); Summer season, 50 g ai/ha)?
Answer: 18

Question: What about the “Observed damage (100=total damage to plant, 0=no damage)” value (Bidens pilosa (BIDPI); Summer season, 75 g ai/ha) of the same compound?
Answer: 38

Question: And the “Observed damage (100=total damage to plant, 0=no damage)” value (Bidens pilosa (BIDPI); Summer season, 100 g ai/ha)?
Answer: 28

Question: And the “Observed damage (100=total damage to plant, 0=no damage)” value (Bidens pilosa (BIDPI); Summer season, 150 g ai/ha)?
Answer: 47

Question: And the “Observed damage (100=total damage to plant, 0=no damage)” value (Eleusine indica (ELEIN); Second season, 50 g ai/ha)?
Answer: 8

Question: What about the “Observed damage (100=total damage to plant, 0=no damage)” value (Eleusine indica (ELEIN); Second season, 75 g ai/ha) of the same compound?
Answer: 11

Question: What about the “Observed damage (100=total damage to plant, 0=no damage)” value (Eleusine indica (ELEIN); Second season, 100 g ai/ha) of the same compound?
Answer: 11

Question: What about the “Observed damage (100=total damage to plant, 0=no damage)” value (Eleusine indica (ELEIN); Second season, 150 g ai/ha) of the same compound?
Answer: 14

Question: What about the “Observed damage (100=total damage to plant, 0=no damage)” value (Eleusine indica (ELEIN); Summer season, 50 g ai/ha) of the same compound?
Answer: 18

Question: What about the “Observed damage (100=total damage to plant, 0=no damage)” value (Eleusine indica (ELEIN); Summer season, 75 g ai/ha) of the same compound?
Answer: 25

Question: What about the “Observed damage (100=total damage to plant, 0=no damage)” value (Eleusine indica (ELEIN); Summer season, 100 g ai/ha) of the same compound?
Answer: 33

Question: What about the “Observed damage (100=total damage to plant, 0=no damage)” value (Eleusine indica (ELEIN); Summer season, 150 g ai/ha) of the same compound?
Answer: 53

Question: And the “Observed damage (100=total damage to plant, 0=no damage)” value ([2]; Second season, 50 g ai/ha)?
Answer: 13

Question: What about the “Observed damage (100=total damage to plant, 0=no damage)” value ([2]; Second season, 75 g ai/ha) of the same compound?
Answer: 21

Question: And the “Observed damage (100=total damage to plant, 0=no damage)” value ([2]; Second season, 100 g ai/ha)?
Answer: 25

Question: And the “Observed damage (100=total damage to plant, 0=no damage)” value ([2]; Second season, 150 g ai/ha)?
Answer: 43

Question: What about the “Observed damage (100=total damage to plant, 0=no damage)” value ([2]; Summer season, 50 g ai/ha) of the same compound?
Answer: 18

Question: And the “Observed damage (100=total damage to plant, 0=no damage)” value ([2]; Summer season, 75 g ai/ha)?
Answer: 28

Question: And the “Observed damage (100=total damage to plant, 0=no damage)” value ([2]; Summer season, 100 g ai/ha)?
Answer: 25

Question: And the “Observed damage (100=total damage to plant, 0=no damage)” value ([2]; Summer season, 150 g ai/ha)?
Answer: 30

Question: And the “Observed damage (100=total damage to plant, 0=no damage)” value ([3]; Second season, 50 g ai/ha)?
Answer: 0

Question: And the “Observed damage (100=total damage to plant, 0=no damage)” value ([3]; Second season, 75 g ai/ha)?
Answer: 0

Question: What about the “Observed damage (100=total damage to plant, 0=no damage)” value ([3]; Second season, 100 g ai/ha) of the same compound?
Answer: 0

Question: What about the “Observed damage (100=total damage to plant, 0=no damage)” value ([3]; Second season, 150 g ai/ha) of the same compound?
Answer: 0

Question: What about the “Observed damage (100=total damage to plant, 0=no damage)” value ([3]; Summer season, 50 g ai/ha) of the same compound?
Answer: 0

Question: And the “Observed damage (100=total damage to plant, 0=no damage)” value ([3]; Summer season, 75 g ai/ha)?
Answer: 0

Question: What about the “Observed damage (100=total damage to plant, 0=no damage)” value ([3]; Summer season, 100 g ai/ha) of the same compound?
Answer: 0

Question: And the “Observed damage (100=total damage to plant, 0=no damage)” value ([3]; Summer season, 150 g ai/ha)?
Answer: 0

Question: And the “Observed damage (100=total damage to plant, 0=no damage)” value ([4]; 50 g ai/ha)?
Answer: 38

Question: What about the “Observed damage (100=total damage to plant, 0=no damage)” value ([4]; 75 g ai/ha) of the same compound?
Answer: 58

Question: And the “Observed damage (100=total damage to plant, 0=no damage)” value ([4]; 100 g ai/ha)?
Answer: 46

Question: What about the “Observed damage (100=total damage to plant, 0=no damage)” value ([4]; 150 g ai/ha) of the same compound?
Answer: 52

Question: What about the “Observed damage (100=total damage to plant, 0=no damage)” value ([5]; 50 g ai/ha) of the same compound?
Answer: 13

Question: And the “Observed damage (100=total damage to plant, 0=no damage)” value ([5]; 75 g ai/ha)?
Answer: 34

Question: And the “Observed damage (100=total damage to plant, 0=no damage)” value ([5]; 100 g ai/ha)?
Answer: 30

Question: What about the “Observed damage (100=total damage to plant, 0=no damage)” value ([5]; 150 g ai/ha) of the same compound?
Answer: 31

Question: What about the “Observed damage (100=total damage to plant, 0=no damage)” value ([6]; Second season, 50 g ai/ha) of the same compound?
Answer: 44

Question: What about the “Observed damage (100=total damage to plant, 0=no damage)” value ([6]; Second season, 75 g ai/ha) of the same compound?
Answer: 56

Question: What about the “Observed damage (100=total damage to plant, 0=no damage)” value ([6]; Second season, 100 g ai/ha) of the same compound?
Answer: 79

Question: And the “Observed damage (100=total damage to plant, 0=no damage)” value ([6]; Second season, 150 g ai/ha)?
Answer: 86

Question: And the “Observed damage (100=total damage to plant, 0=no damage)” value ([6]; Summer season, 50 g ai/ha)?
Answer: 44

Question: And the “Observed damage (100=total damage to plant, 0=no damage)” value ([6]; Summer season, 75 g ai/ha)?
Answer: 49

Question: What about the “Observed damage (100=total damage to plant, 0=no damage)” value ([6]; Summer season, 100 g ai/ha) of the same compound?
Answer: 60

Question: What about the “Observed damage (100=total damage to plant, 0=no damage)” value ([6]; Summer season, 150 g ai/ha) of the same compound?
Answer: 83
